Measurements: patent US20180017546A1, “METHODS OF ADMINISTERING AND EVALUATING NITROGEN SCAVENGING DRUGS FOR THE TREATMENT OF HEPATIC ENCEPHALOPATHY” (Horizon Therapeutics, LLC, priority 2012, published 2018)
Like-named read-outs stand apart in the source and are kept apart here. Each block holds one molecule with its values, some of them ahead of it.

Legend:
[1] = test system: subjects with cirrhosis and HE; experiment: HALT-HE clinical trial: count of HE events over 16 weeks by plasma ammonia level; format: in vivo, human
Protocol: The relationship between HE events and fasting ammonia levels was evaluated in subjects from the HALT-HE clinical trial (HPN-100-008, ClinicalTrials.gov identifier NCT00999167). To be eligible for HE analysis, subject had to (1) be included in the HALT-HE (Part B) safety population, (2) have at least one treatment with a study drug (either HPN-100 or placebo), and (3) have a quantifiable measurement of plasma ammonia from a blood specimen drawn at the visit and time point of interest. Of the 178 total subjects enrolled in the HALT-HE study and included in the safety population, 171 met the additional criteria.
Fasting ammonia levels were measured on day 1 (baseline) and at days 7 and 14. Day 1 values were derived from the measurement closest to, but prior to, initiation of dosing. Day 7 and 14 values were obtained from the nominal visit day and time point (pre-dose or 4-hour). To account for differences in local laboratories used during the clinical trial, local measurements of ammonia were standardized to an upper limit of normal (ULN) of 35 μmol/L according to the following formula:
Ammoniastd=Ammonialocal*(35/ULN of Ammonialocal).
[…] An HE event was defined as the occurrence of either (1) a West Haven Grade 2 or above or (2) a West Haven Grade 1 AND an asterixis grade increase of 1, if baseline West Haven was 0.
To describe the relationship between plasma ammonia levels and HE events, ammonia levels at the nominal times were initially grouped into five categories as multiples of the standardized ULN (35 μmol/L): (1) [0-≦0.5], (2) [0.5-≦1.0], (3) [1.0-≦1.5], (4) [1.5-≦2.0], and (5) [>2.0].
Each subject had between zero and eight HE episodes over the course of their exposure to study drug. The relationship between ammonia at a given nominal time and the number of HE events was modeled using a negative binomial model whereby the effect of study drug was considered only after controlling for ammonia level. […] Based on the model, the number of HE events was estimated for each level of ammonia. By comparing each level of ammonia to the lowest level, the pattern of the relationship could not only be described but also statistically tested through a priori contrasts.
The relationship between HE events and ammonia levels at day 7 (pre-dose), day 7 (four hours after dosing), day 14 (pre-dose), and day 14 (four hours after dosing) for each of these groups is summarized in FIGS. 2-6. […] The relationship between HE events and ammonia levels at day 1, day 7 (pre-dose), day 7 (four hours after dosing), day 14 (pre-dose), and day 14 (four hours after dosing) for each of these groups is summarized in Tables 1-5, respectively. In each table, the first three rows for each treatment group show results for the three category model ([0-1.0], [>1.0-1.5], and [>1.5]), while the next two rows show results for the two category model ([0-1.5] and [>1.5]). Note that, based on the statistical methodology, estimation of HE events for input category >1.5 in a two category model is not necessarily equal to the result for the three category model.

[2] = Conversion of PAA prodrug to urinary PAGN in 130 HE patients at steady state dosing; format: in vivo, human; conditions: steady state dosing with NaPBA or equivalent dose of HPN-100
Protocol: As disclosed herein, additional trials have been performed to evaluate the conversion of PAA to urinary PAGN in subjects with HE. Urinary PAGN output was measured in 130 HE patients during steady state dosing with either NaPBA or an equivalent dose of HPN-100. As summarized in Table 11, the mean percent conversion of PAA prodrug to urinary PAGN in HE patients was about 57%, with a 95% confidence interval range of 52-63%.

[3] = cited from earlier work; for Mean percent conversion of HPN-100 to urinary PAGN: 8 subjects
[4] = ammonia on day 7, four hours post-dose, [0-1.0] ULN, three category model
[5] = ammonia on day 7, four hours post-dose, [0-1.5] ULN, two category model
[6] = ammonia on day 7, four hours post-dose, [>1.0-1.5] ULN, three category model
[7] = ammonia on day 7, four hours post-dose, [>1.5] ULN, three category model
[8] = ammonia on day 7, four hours post-dose, [>1.5] ULN, two category model
[9] = ammonia on day 14 (pre-dose), [0-1.0] ULN, three category model
[10] = ammonia on day 14 (pre-dose), [0-1.5] ULN, two category model
[11] = ammonia on day 14 (pre-dose), [>1.0-1.5] ULN, three category model
[12] = ammonia on day 14 (pre-dose), [>1.5] ULN, three category model
[13] = ammonia on day 14 (pre-dose), [>1.5] ULN, two category model
[14] = ammonia on day 14, four hours post-dose, [0-1.0] ULN, three category model
[15] = ammonia on day 14, four hours post-dose, [0-1.5] ULN, two category model
[16] = ammonia on day 14, four hours post-dose, [>1.0-1.5] ULN, three category model
[17] = ammonia on day 14, four hours post-dose, [>1.5] ULN, three category model
[18] = ammonia on day 14, four hours post-dose, [>1.5] ULN, two category model
[19] = pre-dose ammonia on day 1, [0-1.0] ULN, three category model
[20] = pre-dose ammonia on day 1, [0-1.5] ULN, two category model
[21] = pre-dose ammonia on day 1, [>1.0-1.5] ULN, three category model
[22] = pre-dose ammonia on day 1, [>1.5] ULN, three category model
[23] = pre-dose ammonia on day 1, [>1.5] ULN, two category model
[24] = pre-dose ammonia on day 7, [0-1.0] ULN, three category model
[25] = pre-dose ammonia on day 7, [0-1.5] ULN, two category model
[26] = pre-dose ammonia on day 7, [>1.0-1.5] ULN, three category model
[27] = pre-dose ammonia on day 7, [>1.5] ULN, three category model
[28] = pre-dose ammonia on day 7, [>1.5] ULN, two category model

Mean percent conversion of PAA prodrug to urinary PAGN [2]: consistent
Structure (SMILES): O=C(CCCc1ccccc1)OCC(COC(=O)CCCc1ccccc1)OC(=O)CCCc1ccccc1 [HPN-100, glyceryl tri-[4-phenylbutyrate]]
No. of per-subject HE Events Estimated over 16 weeks [1, 4]: 0.16
No. of per-subject HE Events Estimated over 52 weeks [1, 4]: 0.51
No. of per-subject HE Events Max [1, 4]: 2
No. of per-subject HE Events Min [1, 4]: 0
No. of per-subject HE Events Estimated over 16 weeks [1, 5]: 0.41
No. of per-subject HE Events Estimated over 52 weeks [1, 5]: 1.34
No. of per-subject HE Events Max [1, 5]: 5
No. of per-subject HE Events Min [1, 5]: 0
No. of per-subject HE Events Estimated over 16 weeks [1, 6]: 0.88
No. of per-subject HE Events Estimated over 52 weeks [1, 6]: 2.85
No. of per-subject HE Events Max [1, 6]: 5
No. of per-subject HE Events Min [1, 6]: 0
No. of per-subject HE Events Estimated over 16 weeks [1, 7]: 1.16
No. of per-subject HE Events Estimated over 52 weeks [1, 7]: 3.77
No. of per-subject HE Events Max [1, 7]: 4
No. of per-subject HE Events Min [1, 7]: 0
No. of per-subject HE Events Estimated over 16 weeks [1, 8]: 1.18
No. of per-subject HE Events Estimated over 52 weeks [1, 8]: 3.85
No. of per-subject HE Events Max [1, 8]: 4
No. of per-subject HE Events Min [1, 8]: 0
No. of per-subject HE Events Estimated over 16 weeks [1, 9]: 0.36
No. of per-subject HE Events Estimated over 52 weeks [1, 9]: 1.18
No. of per-subject HE Events Max [1, 9]: 5
No. of per-subject HE Events Min [1, 9]: 0
No. of per-subject HE Events Estimated over 16 weeks [1, 10]: 0.37
No. of per-subject HE Events Estimated over 52 weeks [1, 10]: 1.21
No. of per-subject HE Events Max [1, 10]: 5
No. of per-subject HE Events Min [1, 10]: 0
No. of per-subject HE Events Estimated over 16 weeks [1, 11]: 0.40
No. of per-subject HE Events Estimated over 52 weeks [1, 11]: 1.29
No. of per-subject HE Events Max [1, 11]: 2
No. of per-subject HE Events Min [1, 11]: 0
No. of per-subject HE Events Estimated over 16 weeks [1, 12]: 1.29
No. of per-subject HE Events Estimated over 52 weeks [1, 12]: 4.21
No. of per-subject HE Events Max [1, 12]: 4
No. of per-subject HE Events Min [1, 12]: 0
No. of per-subject HE Events Estimated over 16 weeks [1, 13]: 1.29
No. of per-subject HE Events Estimated over 52 weeks [1, 13]: 4.21
No. of per-subject HE Events Max [1, 13]: 4
No. of per-subject HE Events Min [1, 13]: 0
No. of per-subject HE Events Estimated over 16 weeks [1, 14]: 0.28
No. of per-subject HE Events Estimated over 52 weeks [1, 14]: 0.92
No. of per-subject HE Events Max [1, 14]: 4
No. of per-subject HE Events Min [1, 14]: 0
No. of per-subject HE Events Estimated over 16 weeks [1, 15]: 0.33
No. of per-subject HE Events Estimated over 52 weeks [1, 15]: 1.09
No. of per-subject HE Events Max [1, 15]: 4
No. of per-subject HE Events Min [1, 15]: 0
No. of per-subject HE Events Estimated over 16 weeks [1, 16]: 0.41
No. of per-subject HE Events Estimated over 52 weeks [1, 16]: 1.33
No. of per-subject HE Events Max [1, 16]: 2
No. of per-subject HE Events Min [1, 16]: 0
No. of per-subject HE Events Estimated over 16 weeks [1, 17]: 0.96
No. of per-subject HE Events Estimated over 52 weeks [1, 17]: 3.13
No. of per-subject HE Events Max [1, 17]: 4
No. of per-subject HE Events Min [1, 17]: 0
No. of per-subject HE Events Estimated over 16 weeks [1, 18]: 0.97
No. of per-subject HE Events Estimated over 52 weeks [1, 18]: 3.14
No. of per-subject HE Events Max [1, 18]: 4
No. of per-subject HE Events Min [1, 18]: 0
No. of per-subject HE Events Estimated over 16 weeks [1, 19]: 0.25
No. of per-subject HE Events Estimated over 52 weeks [1, 19]: 0.80
No. of per-subject HE Events Max [1, 19]: 2
No. of per-subject HE Events Min [1, 19]: 0
No. of per-subject HE Events Estimated over 16 weeks [1, 20]: 0.39
No. of per-subject HE Events Estimated over 52 weeks [1, 20]: 1.26
No. of per-subject HE Events Max [1, 20]: 5
No. of per-subject HE Events Min [1, 20]: 0
No. of per-subject HE Events Estimated over 16 weeks [1, 21]: 0.61
No. of per-subject HE Events Estimated over 52 weeks [1, 21]: 1.98
No. of per-subject HE Events Max [1, 21]: 5
No. of per-subject HE Events Min [1, 21]: 0
No. of per-subject HE Events Estimated over 16 weeks [1, 22]: 1.35
No. of per-subject HE Events Estimated over 52 weeks [1, 22]: 4.37
No. of per-subject HE Events Max [1, 22]: 4
No. of per-subject HE Events Min [1, 22]: 0
No. of per-subject HE Events Estimated over 16 weeks [1, 23]: 1.36
No. of per-subject HE Events Estimated over 52 weeks [1, 23]: 4.41
No. of per-subject HE Events Max [1, 23]: 4
No. of per-subject HE Events Min [1, 23]: 0
No. of per-subject HE Events Estimated over 16 weeks [1, 24]: 0.29
No. of per-subject HE Events Estimated over 52 weeks [1, 24]: 0.95
No. of per-subject HE Events Max [1, 24]: 2
No. of per-subject HE Events Min [1, 24]: 0
No. of per-subject HE Events Estimated over 16 weeks [1, 25]: 0.45
No. of per-subject HE Events Estimated over 52 weeks [1, 25]: 1.47
No. of per-subject HE Events Max [1, 25]: 5
No. of per-subject HE Events Min [1, 25]: 0
No. of per-subject HE Events Estimated over 16 weeks [1, 26]: 0.90
No. of per-subject HE Events Estimated over 52 weeks [1, 26]: 2.92
No. of per-subject HE Events Max [1, 26]: 5
No. of per-subject HE Events Min [1, 26]: 0
No. of per-subject HE Events Estimated over 16 weeks [1, 27]: 1.38
No. of per-subject HE Events Estimated over 52 weeks [1, 27]: 4.50
No. of per-subject HE Events Max [1, 27]: 4
No. of per-subject HE Events Min [1, 27]: 0
No. of per-subject HE Events Estimated over 16 weeks [1, 28]: 1.40
No. of per-subject HE Events Estimated over 52 weeks [1, 28]: 4.56
No. of per-subject HE Events Max [1, 28]: 4
No. of per-subject HE Events Min [1, 28]: 0
Mean percent conversion of HPN-100 to urinary PAGN ([3]; control group of healthy adults with normal hepatic function): 68.6%
Mean percent conversion of HPN-100 to urinary PAGN ([3]; hepatic impairment with cirrhosis, Child-Pugh score A): 79.6%
Mean percent conversion of HPN-100 to urinary PAGN ([3]; hepatic impairment with cirrhosis, Child-Pugh score B): 58.2%
Mean percent conversion of HPN-100 to urinary PAGN ([3]; hepatic impairment with cirrhosis, Child-Pugh score C): 85.0%
Overall mean percent conversion of HPN-100 to urinary PAGN ([3]; overall for the four subject groups): about 75%

Mean percent conversion of PAA prodrug to urinary PAGN [2]: consistent
Structure (SMILES): O=C(O)CCCc1ccccc1 [sodium PBA, reference compound]
